Molecules are shown by their SMILES. Where two headings read alike, the source gives them in different places.

The values below come from paper doi:10.1101/2023.12.04.569845, “Identification of 4-(6-((2-methoxyphenyl)amino)pyrazin-2-yl)benzoic acids as CSNK2A inhibitors with antiviral activity and improved selectivity over PIM3” (bioRxiv, 2023).

What all share (assay): biochemical
The target in one experiment is BRAF (Homo sapiens, UniProt P15056). On the set-up: Thermal shift (DSF, SYPRO Orange) Tm shift of recombinant kinase domains at 10 uM compound.
Chain of BRAF (P15056 whole entry, the tested form may be a part): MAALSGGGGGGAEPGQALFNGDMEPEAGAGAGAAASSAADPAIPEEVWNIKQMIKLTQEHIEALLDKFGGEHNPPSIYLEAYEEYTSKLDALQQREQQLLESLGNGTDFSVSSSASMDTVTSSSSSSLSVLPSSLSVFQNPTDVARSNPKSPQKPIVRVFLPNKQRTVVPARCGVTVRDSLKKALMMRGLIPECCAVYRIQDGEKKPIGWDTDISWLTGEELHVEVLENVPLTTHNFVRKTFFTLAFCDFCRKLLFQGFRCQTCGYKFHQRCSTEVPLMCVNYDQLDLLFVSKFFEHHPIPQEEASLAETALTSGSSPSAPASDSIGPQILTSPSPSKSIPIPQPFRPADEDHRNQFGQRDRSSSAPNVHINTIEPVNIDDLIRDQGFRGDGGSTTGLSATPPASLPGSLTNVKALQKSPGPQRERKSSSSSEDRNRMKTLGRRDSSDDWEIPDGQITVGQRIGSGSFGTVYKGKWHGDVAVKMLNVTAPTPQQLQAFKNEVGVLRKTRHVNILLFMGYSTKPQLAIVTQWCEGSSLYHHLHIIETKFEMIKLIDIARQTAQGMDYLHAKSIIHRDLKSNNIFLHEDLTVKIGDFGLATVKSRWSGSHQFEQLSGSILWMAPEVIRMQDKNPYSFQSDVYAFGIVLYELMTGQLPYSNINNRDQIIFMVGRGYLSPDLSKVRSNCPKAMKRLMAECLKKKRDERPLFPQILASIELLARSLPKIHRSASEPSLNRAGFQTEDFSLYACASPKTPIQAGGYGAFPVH
In another experiment the target is DYRK1A (Homo sapiens, UniProt Q13627). On the set-up: Thermal shift (DSF, SYPRO Orange) Tm shift of recombinant kinase domains at 10 uM compound.
The target of the next experiment is FES (Homo sapiens, UniProt P07332). The arrangement: Thermal shift (DSF, SYPRO Orange) Tm shift of recombinant kinase domains at 10 uM compound.
Chain of FES (P07332 whole entry, the tested form may be a part): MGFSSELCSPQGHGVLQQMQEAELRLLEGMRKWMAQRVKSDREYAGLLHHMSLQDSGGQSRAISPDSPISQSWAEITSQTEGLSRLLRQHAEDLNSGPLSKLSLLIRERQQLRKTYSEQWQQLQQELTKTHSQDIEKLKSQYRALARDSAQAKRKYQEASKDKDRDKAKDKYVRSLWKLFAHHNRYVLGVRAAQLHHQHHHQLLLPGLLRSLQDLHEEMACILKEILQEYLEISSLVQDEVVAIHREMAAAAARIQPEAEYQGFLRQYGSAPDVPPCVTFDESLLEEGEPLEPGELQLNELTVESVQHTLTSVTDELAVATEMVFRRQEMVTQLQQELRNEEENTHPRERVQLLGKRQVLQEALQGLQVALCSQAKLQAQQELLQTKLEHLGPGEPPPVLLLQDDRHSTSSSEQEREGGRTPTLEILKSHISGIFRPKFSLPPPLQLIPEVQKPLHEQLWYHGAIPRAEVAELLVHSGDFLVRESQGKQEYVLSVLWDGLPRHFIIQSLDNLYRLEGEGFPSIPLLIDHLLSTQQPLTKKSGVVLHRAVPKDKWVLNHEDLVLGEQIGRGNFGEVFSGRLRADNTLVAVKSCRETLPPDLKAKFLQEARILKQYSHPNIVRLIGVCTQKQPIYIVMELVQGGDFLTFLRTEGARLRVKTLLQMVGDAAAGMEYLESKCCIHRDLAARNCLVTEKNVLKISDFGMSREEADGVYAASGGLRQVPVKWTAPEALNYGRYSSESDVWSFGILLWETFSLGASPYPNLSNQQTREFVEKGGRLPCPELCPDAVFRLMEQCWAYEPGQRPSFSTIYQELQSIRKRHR
A further experiment addresses T1, MSSK1 (Homo sapiens, UniProt Q9UPE1).
T1 construct: gene SRPK3
On the set-up: Thermal shift (DSF, SYPRO Orange) Tm shift of recombinant kinase domains at 10 uM compound.

The target in the next experiment is T2, OSR1 (Homo sapiens, UniProt O95747).
T2 construct: gene OXSR1
T2 sequence (O95747 whole entry): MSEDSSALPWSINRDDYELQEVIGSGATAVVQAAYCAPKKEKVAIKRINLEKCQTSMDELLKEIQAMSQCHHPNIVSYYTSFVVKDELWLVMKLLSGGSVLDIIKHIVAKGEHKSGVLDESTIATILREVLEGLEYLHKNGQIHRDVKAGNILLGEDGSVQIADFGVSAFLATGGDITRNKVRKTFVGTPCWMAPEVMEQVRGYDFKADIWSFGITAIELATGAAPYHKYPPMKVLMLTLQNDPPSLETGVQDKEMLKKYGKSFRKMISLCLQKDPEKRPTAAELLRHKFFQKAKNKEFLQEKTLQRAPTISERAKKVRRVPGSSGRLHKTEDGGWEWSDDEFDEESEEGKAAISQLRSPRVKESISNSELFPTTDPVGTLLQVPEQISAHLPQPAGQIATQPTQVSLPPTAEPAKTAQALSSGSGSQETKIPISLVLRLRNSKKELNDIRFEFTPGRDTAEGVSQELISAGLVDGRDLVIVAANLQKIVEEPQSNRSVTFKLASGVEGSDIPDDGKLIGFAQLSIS
On the set-up: Thermal shift (DSF, SYPRO Orange) Tm shift of recombinant kinase domains at 10 uM compound.

The next experiment concerns the target T3, STLK3 (Homo sapiens, UniProt Q9UEW8).
T3 construct: gene STK39
On the set-up: Thermal shift (DSF, SYPRO Orange) Tm shift of recombinant kinase domains at 10 uM compound.

The target of the next experiment is T4, ATK3 (Homo sapiens, UniProt Q9Y243).
T4 construct: gene AKT3; kinase domain
T4 sequence (Q9Y243 whole entry, the tested form may be a part): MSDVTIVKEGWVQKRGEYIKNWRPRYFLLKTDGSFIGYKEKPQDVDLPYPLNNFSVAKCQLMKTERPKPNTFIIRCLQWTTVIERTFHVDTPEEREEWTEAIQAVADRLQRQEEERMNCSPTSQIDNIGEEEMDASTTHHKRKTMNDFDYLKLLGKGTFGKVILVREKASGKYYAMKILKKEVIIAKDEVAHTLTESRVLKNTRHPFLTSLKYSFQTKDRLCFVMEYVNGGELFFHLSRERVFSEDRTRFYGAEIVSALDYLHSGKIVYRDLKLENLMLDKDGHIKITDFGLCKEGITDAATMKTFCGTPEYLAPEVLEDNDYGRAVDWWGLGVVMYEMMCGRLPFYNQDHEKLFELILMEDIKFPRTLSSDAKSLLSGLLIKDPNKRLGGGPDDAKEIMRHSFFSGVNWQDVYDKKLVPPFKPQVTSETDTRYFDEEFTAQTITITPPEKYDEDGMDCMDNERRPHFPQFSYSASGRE
On the set-up: Thermal shift assay (SYPRO Orange DSF) of recombinant kinase domains; Tm shift. As for the experimental part:
(§1) S23 Thermal stability kinase selectivity. The assay was performed as previously described. 9,10 Briefly, recombinant protein kinase domains at a concentration of 2 μM were mixed with 10 μM compound in a buffer containing 20 mM HEPES, pH 7.5, and 500 mM NaCl. SYPRO Orange (5000×, Invitrogen) was added as a fluorescence probe (1 µl per mL). Subsequently, temperature-dependent protein unfolding profiles were measured using the QuantStudio™ 5 realtime PCR machine (Thermo Fisher). Excitation and emission filters were set to 465 nm and 590 nm, respectively. The temperature was raised with a step rate of 3°C per minute. Data points were analysed with the internal software (Thermal Shift SoftwareTM Version 1.4, Thermo Fisher) using the Boltzmann equation to determine the inflection point of the transition curve.

For another experiment, the target named is T5, TIF1 (Homo sapiens, UniProt O15164).
T5 construct: gene TRIM24
T5 sequence (O15164 1-1050): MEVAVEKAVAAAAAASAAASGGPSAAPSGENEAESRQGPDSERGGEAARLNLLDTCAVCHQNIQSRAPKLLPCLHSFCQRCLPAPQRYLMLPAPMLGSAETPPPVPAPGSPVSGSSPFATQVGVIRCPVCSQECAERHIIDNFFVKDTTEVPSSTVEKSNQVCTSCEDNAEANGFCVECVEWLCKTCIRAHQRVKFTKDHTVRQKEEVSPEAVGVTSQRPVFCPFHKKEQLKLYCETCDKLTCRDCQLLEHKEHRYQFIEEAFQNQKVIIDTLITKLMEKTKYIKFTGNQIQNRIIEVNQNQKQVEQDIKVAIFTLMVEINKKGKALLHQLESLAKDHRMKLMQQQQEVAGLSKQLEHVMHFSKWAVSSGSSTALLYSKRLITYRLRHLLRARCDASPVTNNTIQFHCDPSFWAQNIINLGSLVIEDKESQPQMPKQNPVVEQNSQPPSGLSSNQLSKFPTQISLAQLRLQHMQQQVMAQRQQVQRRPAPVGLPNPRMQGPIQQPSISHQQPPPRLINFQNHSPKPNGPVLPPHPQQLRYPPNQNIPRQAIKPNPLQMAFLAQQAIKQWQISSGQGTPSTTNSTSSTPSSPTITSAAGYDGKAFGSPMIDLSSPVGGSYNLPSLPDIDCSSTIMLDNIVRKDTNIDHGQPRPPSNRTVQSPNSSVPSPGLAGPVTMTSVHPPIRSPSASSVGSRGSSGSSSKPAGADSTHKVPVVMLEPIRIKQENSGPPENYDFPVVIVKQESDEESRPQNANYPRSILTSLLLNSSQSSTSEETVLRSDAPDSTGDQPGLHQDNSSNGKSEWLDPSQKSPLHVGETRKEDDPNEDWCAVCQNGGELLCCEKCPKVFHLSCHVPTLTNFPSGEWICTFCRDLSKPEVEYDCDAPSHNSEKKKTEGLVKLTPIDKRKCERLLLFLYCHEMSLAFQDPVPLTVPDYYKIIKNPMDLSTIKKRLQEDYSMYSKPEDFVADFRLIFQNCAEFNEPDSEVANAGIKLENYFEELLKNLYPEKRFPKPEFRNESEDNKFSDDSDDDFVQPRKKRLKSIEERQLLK
The arrangement: Thermal shift assay (SYPRO Orange DSF) of recombinant kinase domains; Tm shift. As for the experimental part: as §1

T1 sequence (Q9UPE1 whole entry): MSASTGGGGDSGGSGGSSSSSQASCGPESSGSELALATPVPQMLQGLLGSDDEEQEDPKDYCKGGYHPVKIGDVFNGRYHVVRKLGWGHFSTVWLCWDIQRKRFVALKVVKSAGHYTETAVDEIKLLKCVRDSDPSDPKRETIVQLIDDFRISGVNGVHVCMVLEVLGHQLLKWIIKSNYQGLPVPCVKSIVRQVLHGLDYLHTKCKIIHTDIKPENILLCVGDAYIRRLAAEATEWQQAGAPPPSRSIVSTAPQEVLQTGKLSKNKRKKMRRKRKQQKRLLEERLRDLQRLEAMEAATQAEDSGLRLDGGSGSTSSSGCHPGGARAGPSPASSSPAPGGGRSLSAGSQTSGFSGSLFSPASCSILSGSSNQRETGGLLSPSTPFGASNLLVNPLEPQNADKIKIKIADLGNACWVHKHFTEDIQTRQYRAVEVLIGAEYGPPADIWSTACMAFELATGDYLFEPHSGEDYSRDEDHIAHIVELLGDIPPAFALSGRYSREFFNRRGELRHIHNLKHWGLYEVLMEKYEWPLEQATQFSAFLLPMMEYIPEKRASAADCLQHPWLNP

Regarding `COc1ccc(OC(C)C)cc1Nc1cncc(-c2ccc(C(=O)O)cc2)n1` [7c], the ΔTm at 10 µM on BRAF (read-out: 7c) is 7 °C; at DYRK1A (read-out: 7c), 5 °C; at FES (read-out: 7c) it was 0 °C; at MSSK1 (read-out: 7c), 1 °C; at OSR1 (read-out: 7c), 0 °C; at STLK3 (read-out: 7c) it was 0 °C. Moreover, the ΔTm at 10 µM at ATK3 (read-out: 7c) and at TIF1 (read-out: 7c) was -1 °C in each case.

For the molecule `CC(C)Oc1ccc2ccn(-c3cncc(-c4ccc(C(=O)O)cc4)n3)c2c1` [6c], the ΔTm at 10 µM on BRAF (read-out: 6c) is 8 °C; at DYRK1A (read-out: 6c), 6 °C; at FES (read-out: 6c), -1 °C; at MSSK1 (read-out: 6c), 1 °C; at OSR1 (read-out: 6c) it was -2 °C; at STLK3 (read-out: 6c), 0 °C. The ΔTm at 10 µM was -1 °C at ATK3 (read-out: 6c) and -2 °C on TIF1 (read-out: 6c).

Take `CC(C)Nc1ccc2cnn(-c3cncc(-c4ccc(C(=O)O)cc4)n3)c2c1` [compound 2, 2]: the ΔTm at 10 µM at BRAF (read-out: 2) is 6 °C; at DYRK1A (read-out: 2), 7 °C; at FES (read-out: 2) it was 2 °C; on MSSK1 (read-out: 2), 3 °C; on OSR1 (read-out: 2) it was -1 °C; at STLK3 (read-out: 2) it was 1 °C. In addition, the ΔTm at 10 µM on ATK3 (read-out: 2) was found to be 1 °C; on TIF1 (read-out: 2) it was 0 °C.
